What was measured:
Assay in all cases: viability relative to DMSO control (fraction); higher = less drug effect (more viable cells)
Conditions in all cases: 48 h
Imatinib = compound: Cc1ccc(NC(=O)c2ccc(CN3CCN(C)CC3)cc2)cc1Nc1nccc(-c2cccnc2)n1 [Imatinib]
Procedure, shortened: (§1)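 Using 384-well plates with compounds already plated at five concentrations, one well per concentration, 4 × 10^4 primary mononuclear tumour cells were added per well. Cells were Ficoll-isolated from blood or bone marrow or came from processed lymph node, fresh or cryopreserved. They were kept for 48 h at 37 °C and 5% CO2 in RPMI-1640 supplemented with penicillin/streptomycin, L-glutamine and human serum, and viability was read as CellTiter-Glo luminescence relative to the median of 16 inner DMSO wells.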

Vincristine = compound: CC[C@]1(O)C[C@H]2CN(CCc3c([nH]c4ccccc34)[C@@](C(=O)OC)(c3cc4c(cc3OC)N(C=O)[C@H]3[C@@](O)(C(=O)OC)[C@H](OC(C)=O)[C@]5(CC)C=CCN6CC[C@]43[C@@H]65)C2)C1 [Vincristine]
Procedure, shortened: as §1

Carfilzomib = compound: CC(C)C[C@H](NC(=O)[C@H](CCc1ccccc1)NC(=O)CN1CCOCC1)C(=O)N[C@@H](Cc1ccccc1)C(=O)N[C@@H](CC(C)C)C(=O)[C@@]1(C)CO1 [Carfilzomib]
Procedure, shortened: as §1

Panobinostat = compound: Cc1[nH]c2ccccc2c1CCNCc1ccc(/C=C/C(=O)NO)cc1 [Panobinostat]
Procedure, shortened: as §1

Bortezomib = compound: CC(C)C[C@H](NC(=O)[C@H](Cc1ccccc1)NC(=O)c1cnccn1)B(O)O [Bortezomib]
Procedure, shortened: as §1

Pentostatin = compound: OC[C@H]1O[C@@H](n2cnc3c2N=CNC[C@H]3O)C[C@@H]1O [Pentostatin]
Procedure, shortened: as §1

Idarubicin = compound: CC(=O)[C@]1(O)Cc2c(O)c3c(c(O)c2[C@@H](O[C@H]2C[C@H](N)[C@H](O)[C@H](C)O2)C1)C(=O)c1ccccc1C3=O [Idarubicin]
Procedure, shortened: as §1

BI6727 = compound: CC[C@@H]1C(=O)N(C)c2cnc(Nc3ccc(C(=O)N[C@H]4CC[C@H](N5CCN(CC6CC6)CC5)CC4)cc3OC)nc2N1C(C)C [BI6727]
Procedure, shortened: as §1

Quizartinib = compound: CC(C)(C)c1cc(NC(=O)Nc2ccc(-c3cn4c(n3)sc3cc(OCCN5CCOCC5)ccc34)cc2)no1 [Quizartinib]
Procedure, shortened: as §1

Vemurafenib = compound: CCCS(=O)(=O)Nc1ccc(F)c(C(=O)c2c[nH]c3ncc(-c4ccc(Cl)cc4)cc23)c1F [Vemurafenib]
Procedure, shortened: as §1

Nelarabine = compound: COc1nc(N)nc2c1ncn2[C@@H]1O[C@H](CO)[C@@H](O)[C@@H]1O [Nelarabine]
Procedure, shortened: as §1

TMP269 = compound: O=C(NCC1(c2nc(-c3ccccc3)cs2)CCOCC1)c1cccc(-c2noc(C(F)(F)F)n2)c1 [TMP269]
Procedure, shortened: as §1

[1] = compound: CC(C)(C)OC(=O)Nc1ccc(-c2cc(C(=O)NCCCCCCC(=O)NO)no2)cc1
Procedure, shortened: as §1

Rigosertib = compound: COc1cc(OC)c(/C=C/S(=O)(=O)Cc2ccc(OC)c(NCC(=O)O)c2)c(OC)c1 [Rigosertib]
Procedure, shortened: as §1

In the case of primary MCL patient cells (S068), the viability (Imatinib; 0.016 µM) is reported as 1.19, the viability (Imatinib; 2 µM) is reported as 0.976 and the viability (Imatinib; 10 µM) is reported as 0.861. The viability (Vincristine; 0.016 µM) was 0.473, the viability (Vincristine; 0.08 µM) was 0.413 and the viability (Vincristine; 0.4 µM) was 0.357. For the same test system, the viability (Vincristine; 2 µM) was 0.28, the viability (Vincristine; 10 µM) was 0.253 and the viability (Carfilzomib; 0.00016 µM) was 0.897. The viability (Carfilzomib; 0.0008 µM) was 0.257, the viability (Carfilzomib; 0.004 µM) was 0.0483 and the viability (Carfilzomib; 0.02 µM) was 0.0291. The viability (Carfilzomib; 0.1 µM) was 0.0301, the viability (Panobinostat; 0.00064 µM) was 0.613 and the viability (Panobinostat; 0.0032 µM) was 0.284. It also gave a viability (Panobinostat; 0.016 µM) of 0.13, a viability (Panobinostat; 0.08 µM) of 0.105 and a viability (Panobinostat; 0.4 µM) of 0.105. It also gave a viability (Bortezomib; 0.008 µM) of 0.942, a viability (Bortezomib; 0.04 µM) of 0.932 and a viability (Bortezomib; 0.2 µM) of 0.964. It also gave a viability (Bortezomib; 1 µM) of 0.982, a viability (Bortezomib; 5 µM) of 0.956 and a viability (Pentostatin; 0.03 µM) of 0.654. It also gave a viability (Pentostatin; 0.15 µM) of 0.644, a viability (Pentostatin; 0.75 µM) of 0.736 and a viability (Pentostatin; 3.75 µM) of 0.526. It also gave a viability (Pentostatin; 18.76 µM) of 0.448, a viability (Idarubicin; 0.024 µM) of 0.835 and a viability (Idarubicin; 0.12 µM) of 0.457. For the same test system, the viability (Idarubicin; 0.6 µM) was 0.154, the viability (Idarubicin; 3 µM) was 0.017 and the viability (Idarubicin; 15 µM) was 0.021. For the same test system, the viability (BI6727; 0.024 µM) was 0.881, the viability (BI6727; 0.12 µM) was 0.771 and the viability (BI6727; 0.6 µM) was 0.403. It also gave a viability (BI6727; 3 µM) of 0.219, a viability (BI6727; 15 µM) of 0.13 and a viability (Quizartinib; 0.016 µM) of 1.08. For the same test system, the viability (Quizartinib; 0.08 µM) was 1.17, the viability (Quizartinib; 0.4 µM) was 1.23 and the viability (Quizartinib; 2 µM) was 1.39. The viability (Quizartinib; 10 µM) was 1.51, the viability (Vemurafenib; 0.024 µM) was 1.04 and the viability (Vemurafenib; 0.12 µM) was 0.988. For the same test system, the viability (Vemurafenib; 0.6 µM) was 1.05, the viability (Vemurafenib; 3 µM) was 1.15 and the viability (Vemurafenib; 15 µM) was 1.19. The viability (Nelarabine; 0.024 µM) was 0.995, the viability (Nelarabine; 0.12 µM) was 1.1 and the viability (Nelarabine; 0.6 µM) was 0.94. For the same test system, the viability (Nelarabine; 3 µM) was 0.901, the viability (Nelarabine; 15 µM) was 0.682 and the viability (TMP269; 0.024 µM) was 0.882. For the same test system, the viability (TMP269; 0.12 µM) was 0.943, the viability (TMP269; 0.6 µM) was 0.894 and the viability (TMP269; 3 µM) was 1.01. The viability (TMP269; 15 µM) was 1.24, the viability ([1]; 0.024 µM) was 0.812 and the viability ([1]; 0.12 µM) was 0.533. The viability ([1]; 0.6 µM) was 0.216, the viability ([1]; 3 µM) was 0.115 and the viability ([1]; 15 µM) was 0.0907. The viability (Rigosertib; 0.008 µM) was 0.94, the viability (Rigosertib; 0.04 µM) was 0.934 and the viability (Rigosertib; 0.2 µM) was 0.846. The viability (Rigosertib; 1 µM) was 0.835 and the viability (Rigosertib; 5 µM) was 0.37.

primary T-PLL patient cells (S008) showed a viability (Imatinib; 0.08 µM) of 0.971, a viability (Imatinib; 0.4 µM) of 1.07 and a viability (Imatinib; 2 µM) of 0.994. The viability (Imatinib; 10 µM) was 0.978, the viability (Vincristine; 0.016 µM) was 0.66 and the viability (Vincristine; 0.08 µM) was 0.34. The viability (Vincristine; 0.4 µM) was 0.269, the viability (Vincristine; 2 µM) was 0.22 and the viability (Vincristine; 10 µM) was 0.164. The viability (Carfilzomib; 0.00016 µM) was 0.997, the viability (Carfilzomib; 0.0008 µM) was 0.434 and the viability (Carfilzomib; 0.004 µM) was 0.0161. It also gave a viability (Carfilzomib; 0.02 µM) of 0.0168, a viability (Carfilzomib; 0.1 µM) of 0.0205 and a viability (Panobinostat; 0.00064 µM) of 0.965. It also gave a viability (Panobinostat; 0.0032 µM) of 0.985, a viability (Panobinostat; 0.016 µM) of 0.895 and a viability (Panobinostat; 0.08 µM) of 0.818. For the same test system, the viability (Panobinostat; 0.4 µM) was 0.723, the viability (Bortezomib; 0.008 µM) was 0.88 and the viability (Bortezomib; 0.04 µM) was 1.02. The viability (Bortezomib; 0.2 µM) was 0.872, the viability (Bortezomib; 1 µM) was 0.921 and the viability (Bortezomib; 5 µM) was 0.879. It also gave a viability (Pentostatin; 0.03 µM) of 1.04, a viability (Pentostatin; 0.15 µM) of 0.989 and a viability (Pentostatin; 0.75 µM) of 1. It also gave a viability (Pentostatin; 3.75 µM) of 0.892, a viability (Pentostatin; 18.76 µM) of 0.917 and a viability (Idarubicin; 0.024 µM) of 0.918. It also gave a viability (Idarubicin; 0.12 µM) of 0.591, a viability (Idarubicin; 0.6 µM) of 0.128 and a viability (Idarubicin; 3 µM) of 0.0427. The viability (Idarubicin; 15 µM) was 0.03, the viability (BI6727; 0.024 µM) was 0.979 and the viability (BI6727; 0.12 µM) was 0.921. For the same test system, the viability (BI6727; 0.6 µM) was 0.934, the viability (BI6727; 3 µM) was 0.899 and the viability (BI6727; 15 µM) was 0.746. The viability (Quizartinib; 0.016 µM) was 0.99, the viability (Quizartinib; 0.08 µM) was 0.953 and the viability (Quizartinib; 0.4 µM) was 0.986. The viability (Quizartinib; 2 µM) was 1.03, the viability (Quizartinib; 10 µM) was 1.02 and the viability (Vemurafenib; 0.024 µM) was 0.958. For the same test system, the viability (Vemurafenib; 0.12 µM) was 0.983, the viability (Vemurafenib; 0.6 µM) was 0.975 and the viability (Vemurafenib; 3 µM) was 0.998. The viability (Vemurafenib; 15 µM) was 1.02, the viability (Nelarabine; 0.024 µM) was 1.03 and the viability (Nelarabine; 0.12 µM) was 0.99. For the same test system, the viability (Nelarabine; 0.6 µM) was 0.942, the viability (Nelarabine; 3 µM) was 0.906 and the viability (Nelarabine; 15 µM) was 0.758. It also gave a viability (TMP269; 0.024 µM) of 1.04, a viability (TMP269; 0.12 µM) of 1.01 and a viability (TMP269; 0.6 µM) of 1.01. For the same test system, the viability (TMP269; 3 µM) was 1.01, the viability (TMP269; 15 µM) was 0.947 and the viability ([1]; 0.024 µM) was 0.97. The viability ([1]; 0.12 µM) was 0.973, the viability ([1]; 0.6 µM) was 1.01 and the viability ([1]; 3 µM) was 0.848. The viability ([1]; 15 µM) was 0.704, the viability (Rigosertib; 0.008 µM) was 1.07 and the viability (Rigosertib; 0.04 µM) was 1.02. It also gave a viability (Rigosertib; 0.2 µM) of 1.07, a viability (Rigosertib; 1 µM) of 0.991 and a viability (Rigosertib; 5 µM) of 0.98.

Reference: the supplement of paper PMC10733146
